Data published in patent US8003695B2 (Chroma Therapeutics Ltd., priority 2006, dated 2011).

How the values were obtained:
IKBKB (IKKβ) = molecular target: T1, IKBKB (IKKβ) (Homo sapiens, UniProt O14920); assay: IKKβ Enzyme Assay (Z'-LYTE, Invitrogen); format: biochemical; settings: ATP at or close to Km; read-out: Inhibitor activity versus IKKβ
T1 construct: purchased Invitrogen (Paisley, UK)
T1 sequence (O14920 1-756): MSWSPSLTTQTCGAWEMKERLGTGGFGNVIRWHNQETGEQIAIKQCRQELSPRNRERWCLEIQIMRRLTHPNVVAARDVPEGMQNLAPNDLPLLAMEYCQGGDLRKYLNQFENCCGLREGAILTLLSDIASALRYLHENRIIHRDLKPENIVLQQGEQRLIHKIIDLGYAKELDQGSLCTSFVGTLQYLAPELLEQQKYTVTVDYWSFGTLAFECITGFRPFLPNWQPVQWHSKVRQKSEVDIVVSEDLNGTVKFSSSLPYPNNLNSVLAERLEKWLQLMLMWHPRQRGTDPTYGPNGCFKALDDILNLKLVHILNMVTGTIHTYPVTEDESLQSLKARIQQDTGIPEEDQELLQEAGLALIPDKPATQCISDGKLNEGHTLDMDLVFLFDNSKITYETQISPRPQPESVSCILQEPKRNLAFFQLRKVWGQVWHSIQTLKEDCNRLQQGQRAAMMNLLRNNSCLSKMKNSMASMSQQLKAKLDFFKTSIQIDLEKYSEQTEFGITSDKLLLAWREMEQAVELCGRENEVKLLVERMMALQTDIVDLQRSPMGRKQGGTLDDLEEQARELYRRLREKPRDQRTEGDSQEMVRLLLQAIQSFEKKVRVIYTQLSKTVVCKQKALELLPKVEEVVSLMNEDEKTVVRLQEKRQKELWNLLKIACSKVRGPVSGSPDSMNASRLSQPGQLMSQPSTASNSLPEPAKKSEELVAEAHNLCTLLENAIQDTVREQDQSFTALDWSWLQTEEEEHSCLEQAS
Procedure, shortened: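 Z'-LYTE FRET assay with 0.9-8.0 ng human IKBKB, 2 μM Ser/Thr 05 peptide and ATP at or near Km in HEPES pH 7.5, 60 min at room temperature, then 60 min development. Coumarin/fluorescein emission ratio read; duplicate nine-step ⅓-log series from 10 μM; IC50 from sigmoidal fit.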

THP-1 cells = assay: LPS-Stimulation of THP-1 Cells, TNF-α release; format: cell-based; settings: Homo sapiens, LPS 1 μg/ml, 6 hrs, read-out: Inhibitor activity versus THP-1 TNFα release
Protocol: LPS-Stimulation of THP-1 Cells
THP-1 cells were plated in 100 μl at a density of 4×10^4 cells/well in V-bottomed 96 well tissue culture treated plates and incubated at 37° C. in 5% CO2 for 16 hrs. 2 hrs after the addition of the inhibitor in 100 μl of tissue culture media, the cells were stimulated with LPS (E. coli strain 005:85, Sigma) at a final concentration of 1 μg/ml and incubated at 37° C. in 5% CO2 for 6 hrs. TNF-α levels were measured from cell-free supernatants by sandwich ELISA (R&D Systems #QTA00B)

human whole blood = assay: LPS-Stimulation of Human Whole Blood, TNF-α release; format: cell-based; settings: LPS 100 ng/ml, 6 hrs, read-out: Inhibitor activity versus human whole blood TNFα release
Protocol: LPS-Stimulation of Human Whole Blood
Whole blood was taken by venous puncture using heparinised vacutainers (Becton Dickinson) and diluted in an equal volume of RPMI1640 tissue culture media (Sigma). 100 μl was plated in V-bottomed 96 well tissue culture treated plates. 2 hrs after the addition of the inhibitor in 100 μl of RPMI1640 media, the blood was stimulated with LPS (E. coli strain 005:B5, Sigma) at a final concentration of 100 ng/ml and incubated at 37° C. in 5% CO2 for 6 hrs. TNF-α levels were measured from cell-free supernatants by sandwich ELISA (R&D Systems #QTA00B)

Structure (SMILES) | IC50 (IKBKB (IKKβ)) [µM] | IC50 (THP-1 cells) [µM] | IC50 (human whole blood) [µM]
NC(=O)Nc1sc(-c2cccc(CN[C@H](C(=O)OC3CCCC3)C3CCCCC3)c2)cc1C(N)=O [Example 10, Cyclopentyl (2S)-({3-[4-carbamoyl-5-(carbamoylamino)-2-thienyl]benzyl}amino)(cyclohexyl)acetate] | 1 to 5 | < 1 | 1 to 5
CC(C)C[C@H](NCc1ccc(-c2cc(C(N)=O)c(NC(N)=O)s2)cc1)C(=O)OC1CCCC1 [Example 2, Cyclopentyl N-{4-[4-carbamoyl-5-(carbamoylamino)-2-thienyl]benzyl}-L-leucinate] | < 1 | > 5 | 1 to 5
NC(=O)Nc1sc(-c2ccc(CN[C@H](C(=O)OC3CCCC3)c3ccccc3)cc2)cc1C(N)=O [Example 1, Cyclopentyl (2S)-({-4-[4-carbamoyl-5-(carbamoylamino)-2-thienyl]benzyl}amino)(phenyl)acetate] | 1 to 5 | 1 to 5 | 1 to 5
Cc1cc(/C=C/CN[C@@H](CC(C)C)C(=O)OC2CCCC2)ccc1-c1cc(C(N)=O)c(NC(N)=O)s1 [Example 33, Cyclopentyl N-[(2E)-3-{4-[4-carbamoyl-5-(carbamoylamino)thiophen-2-yl]-3-methylphenyl}prop-2-en-1-yl]-L-leucinate] | > 5 | < 1 | 1 to 5
CC(C)C[C@H](NC/C=C/c1ccc(-c2cc(C(N)=O)c(NC(N)=O)s2)cc1)C(=O)OC(C)(C)C [Example 42, tert-Butyl N-[(2E)-3-{4-[4-carbamoyl-5-(carbamoylamino)-2-thienyl]phenyl}-prop-2-en-1-yl]-L-leucinate] | < 1 | 1 to 5 | > 5
CC(C)C[C@H](NCc1cccc(-c2cc(C(N)=O)c(NC(N)=O)s2)c1)C(=O)OC1CCCC1 [Example 8, Cyclopentyl N-{3-[4-carbamoyl-5-(carbamoylamino)-2-thienyl]benzyl}-L-leucinate] | < 1 | < 1 | 1 to 5
CC(C)C[C@H](NC/C=C/c1ccc(-c2cc(C(N)=O)c(NC(N)=O)s2)cc1)C(=O)OC1CCCC1 [Example 29, Cyclopentyl N-[(2E)-3-{4-[4-carbamoyl-5-(carbamoylamino)-2-thienyl]phenyl}Prop-2-en-1-yl]-L-leucinate] | < 1 | < 1 | < 1
CC(C)C[C@H](NCCc1cccc(-c2cc(C(N)=O)c(NC(N)=O)s2)c1)C(=O)OC1CCCC1 [Example 18, Cyclopentyl N-(2-{3-[4-carbamoyl-5-(carbamoylamino)-2-thienyl]phenyl}ethyl)-L-leucinate] | 1 to 5 | < 1 | 1 to 5
NC(=O)Nc1sc(-c2ccc(CN[C@@H](C(=O)OC3CCCC3)c3ccccc3)cc2)cc1C(N)=O [Example 4, Cyclopentyl (2R)-({4-[4-carbamoyl-5-(carbamoylamino)-2-thienyl]benzyl}amino)(phenyl)acetate] | < 1 | > 5 | 1 to 5
CC(C)C[C@H](NC/C=C/c1ccc(-c2cc(C(N)=O)c(NC(N)=O)s2)cc1F)C(=O)OC1CCCC1 [Example 31, Cyclopentyl N-[(2E)-3-{4-[4-carbamoyl-5-(carbamoylamino)thiophen-2-yl]-2-fluorophenyl}prop-2-en-1-yl]-L-leucinate] | 1 to 5 | 1 to 5 | 1 to 5
CC(C)C[C@H](NCc1cccc(-c2cc(C(N)=O)c(NC(N)=O)s2)c1)C(=O)OC(C)(C)C [Example 14, tert-Butyl N-{3-[4-carbamoyl-5-(carbamoylamino)-2-thienyl]benzyl}-L-leucinate] | < 1 | < 1 | 1 to 5
CC(C)C[C@H](NC/C=C/c1cccc(-c2cc(C(N)=O)c(NC(N)=O)s2)c1)C(=O)OC1CCCC1 [Example 49, Cyclopentyl N-[(2E)-3-{3-[4-carbamoyl-5-(carbamoylamino)-2-thienyl]phenyl}prop-2-en-1-yl]-L-leucinate] | < 1 | < 1 | < 1
CC(C)C[C@H](NC/C=C/c1ccc(-c2cc(C(N)=O)c(NC(N)=O)s2)cc1Cl)C(=O)OC1CCCC1 [Example 32, Cyclopentyl N-[(2E)-3-{4-[4-carbamoyl-5-(carbamoylamino)thiophen-2-yl]-2-chlorophenyl}prop-2-en-1-yl]-L-leucinate] | 1 to 5 | < 1 | 1 to 5
